What all share (experiment): Post-emergence efficacy, Method A
Common to all, as to format: in vivo

For assay [1], the system named is Ipomoea hederacea (IPOHE). As to conditions: Application rate 500 g/Ha, evaluated after 13 days, 100=total damage to plant, 0=no damage to plant; for pest or weed control at 500 g/ha: Ipomoea hederacea, post-emergence, 312 h, read-out: Control of weed species after post-emergence application, IPOHE. As to the method: (§1) Seeds of a variety of test species were sown in standard soil in pots. After cultivation for 14 days (post-emergence) under controlled conditions in a glasshouse (at 24/16° C., day/night; 14 hours light; 65% humidity), the plants were sprayed with an aqueous spray solution derived from the dissolution of the technical active ingredient formula (I) in a small amount of acetone and a special solvent and emulsifier mixture referred to as IF50 (11.12% Emulsogen EL360 TM+44.44% N-methylpyrrolidone+44.44% Dowanol DPM glycol ether), to create a 50 g/I solution which was then diluted to required concentration using 0.25% or 1% Empicol ESC70 (Sodium lauryl ether sulphate)+1% ammonium sulphate as diluent. The test plants were then grown in a glasshouse under controlled conditions (at 24/16° C., day/night; 14 hours light; 65% humidity) and watered twice daily. After 13 days the test was evaluated (100=total damage to plant; 0=no damage to plant).
(§2) Ipomoea hederacea (IPOHE), Euphorbia heterophylla (EPHHL), Chenopodium album (CHEAL), Amaranthus palmeri (AMAPA), Lolium perenne (LOLPE), Digitaria sanguinalis (DIGSA), Eleusine indica (ELEIN), Echinochloa crus-galli (ECHCG), Setaria faberi (SETFA)

Assay [2] relates to Amaranthus palmeri (AMAPA). As to conditions: Application rate 500 g/Ha, evaluated after 13 days, 100=total damage to plant, 0=no damage to plant; for pest or weed control at 500 g/ha: Amaranthus palmeri, post-emergence, 312 h, read-out: Control of weed species after post-emergence application, AMAPA. The procedure:
as §1, §2

Assay [3] concerns Chenopodium album (CHEAL). As to conditions: Application rate 500 g/Ha, evaluated after 13 days, 100=total damage to plant, 0=no damage to plant; for pest or weed control at 500 g/ha: Chenopodium album, post-emergence, 312 h, read-out: Control of weed species after post-emergence application, CHEAL. As to the method: as §1, §2
The subject of the next assay is Setaria faberi (SETFA). As to conditions: Application rate 500 g/Ha, evaluated after 13 days, 100=total damage to plant, 0=no damage to plant; for pest or weed control at 500 g/ha: Setaria faberi, post-emergence, 312 h, read-out: Control of weed species after post-emergence application, SETFA. The procedure: as §1, §2
Assay [4] deals with Digitaria sanguinalis (DIGSA). To be noted: Application rate 500 g/Ha, evaluated after 13 days, 100=total damage to plant, 0=no damage to plant; for pest or weed control at 500 g/ha: Digitaria sanguinalis, post-emergence, 312 h, read-out: Control of weed species after post-emergence application, DIGSA. The procedure:
as §1, §2

The subject of a further assay is Lolium perenne (LOLPE). As to conditions: Application rate 500 g/Ha, evaluated after 13 days, 100=total damage to plant, 0=no damage to plant; for pest or weed control at 500 g/ha: Lolium perenne, post-emergence, 312 h, read-out: Control of weed species after post-emergence application, LOLPE. As to the method: as §1, §2
The test system of another assay is Eleusine indica (ELEIN). As to conditions: Application rate 500 g/Ha, evaluated after 13 days, 100=total damage to plant, 0=no damage to plant; for pest or weed control at 500 g/ha: Eleusine indica, post-emergence, 312 h, read-out: Control of weed species after post-emergence application, ELEIN. The procedure: as §1, §2
Assay [5] concerns Euphorbia heterophylla (EPHHL). As to conditions: Application rate 500 g/Ha, evaluated after 13 days, 100=total damage to plant, 0=no damage to plant; for pest or weed control at 500 g/ha: Euphorbia heterophylla, post-emergence, 312 h, read-out: Control of weed species after post-emergence application, EPHHL. The procedure:
as §1, §2

Assay [6] concerns Echinochloa crus-galli (ECHCG). As to conditions: Application rate 500 g/Ha, evaluated after 13 days, 100=total damage to plant, 0=no damage to plant; for pest or weed control at 500 g/ha: Echinochloa crus-galli, post-emergence, 312 h, read-out: Control of weed species after post-emergence application, ECHCG. As to the method: as §1, §2

The results in this text go back to US20220125051A1, “PRE-HARVEST DESICCATION METHOD” (SYNGENTA CROP PROTECTION AG, priority 2019, published 2022).

Regarding `O=S(=O)([O-])CC[n+]1ccc(-c2ncc(F)cn2)cn1` [Compound A19], the pest or weed control at 500 g/ha was 40% in assay [1]; 100% in assay [2]; 60% in [3]; 60% with Setaria faberi (SETFA); 50% in [4]; 20% in the assay with Lolium perenne (LOLPE). Moreover, the results for the pest or weed control at 500 g/ha (with Eleusine indica (ELEIN); in assay [5]; in [6]) were 60%, 60% and 40%, respectively.
On to `Cc1ccnc(-c2cc[n+](CCS(=O)(=O)[O-])nc2)n1` [Compound A21], for which the pest or weed control at 500 g/ha turned out to be 40% in [1]; 100% in assay [2]; 80% in assay [3]; 90% in the assay on Setaria faberi (SETFA); 90% in assay [4]; 80% in the assay on Lolium perenne (LOLPE). The results for the pest or weed control at 500 g/ha (with Eleusine indica (ELEIN); in assay [5]; in assay [6]) were 100%, 80% and 60%, respectively.
Turning to `O=S(=O)([O-])CC[n+]1ccc(-c2ncc(C(F)(F)F)cn2)cn1` [Compound A24], the pest or weed control at 500 g/ha is 70% in assay [1]; 90% in assay [2]; 70% in assay [3]; 70% with Setaria faberi (SETFA); 40% in [4]; 60% in the assay on Lolium perenne (LOLPE). Also, the pest or weed control at 500 g/ha is 40% with Eleusine indica (ELEIN), 80% in assay [5] and 60% in assay [6].
Regarding `N#Cc1cnc(-c2cc[n+](CCS(=O)(=O)O)nc2)nc1` [Compound A25], in assay [1], the “Control of weed species after post-emergence application, IPOHE” value came to 50. The “Control of weed species after post-emergence application, AMAPA” value in assay [2] worked out at 100. Also, the “Control of weed species after post-emergence application, CHEAL” value in [3] is on record as 60. For the same compound, the “Control of weed species after post-emergence application, SETFA” value with Setaria faberi (SETFA) is 60. The “Control of weed species after post-emergence application, DIGSA” value in [4] is recorded as 50. For the same compound, in the assay with Lolium perenne (LOLPE), the “Control of weed species after post-emergence application, LOLPE” value is on record as 40. In the assay on Eleusine indica (ELEIN), the “Control of weed species after post-emergence application, ELEIN” value came to 50. The “Control of weed species after post-emergence application, EPHHL” value in [5] was 40. Besides, the “Control of weed species after post-emergence application, ECHCG” value in assay [6] worked out at 70.
With `Cc1nccc(-c2cc[n+](CCS(=O)(=O)[O-])nc2)n1` [Compound A31], the pest or weed control at 500 g/ha was found to be 100% in assay [1]; 100% in assay [2]; 100% in assay [3]; 50% in the assay on Setaria faberi (SETFA); 90% in [4]; 60% in the assay on Lolium perenne (LOLPE). For the same compound, the values for the pest or weed control at 500 g/ha (with Eleusine indica (ELEIN); in assay [5]; in assay [6]) were 80%, 50% and 60%, respectively.
For `COC(=O)c1cnc(-c2cc[n+](CCS(=O)(=O)[O-])nc2)nc1` [Compound A33], the pest or weed control at 500 g/ha in assay [1] was determined as 40%; in assay [2], 100%; in assay [3] it was 80%; in the assay on Setaria faberi (SETFA), 60%; in assay [4], 60%; with Lolium perenne (LOLPE), 50%. Moreover, the values for the pest or weed control at 500 g/ha (in the assay on Eleusine indica (ELEIN); in assay [5]; in assay [6]) were 80%, 60% and 40%, respectively.
For `O=S(=O)([O-])CC[n+]1ccc(-c2ncc(C3CC3)cn2)cn1` [Compound A34], the pest or weed control at 500 g/ha in [1] came to 70%; in assay [2], 100%; in [3], 70%; in the assay with Setaria faberi (SETFA), 70%; in assay [4], 60%; with Lolium perenne (LOLPE) it was 60%. Also, the pest or weed control at 500 g/ha with Eleusine indica (ELEIN) came out at 90%; in [5] it was 70%; in [6] it was 30%.
On to `Cc1cnc(-c2cc[n+](CCC(=O)O)nc2)nc1` [Compound A36], for which the pest or weed control at 500 g/ha stood at 30% in assay [1]; 100% in assay [2]; 90% in assay [3]; 100% in the assay with Setaria faberi (SETFA); 90% in assay [4]; 80% in the assay on Lolium perenne (LOLPE). The pest or weed control at 500 g/ha amounted to 100% with Eleusine indica (ELEIN), 90% in assay [5] and 90% in [6].
Take `COc1cnc(-c2cc[n+](CCC(=O)[O-])nc2)nc1` [Compound A38]: the pest or weed control at 500 g/ha is 20% in [1]; 100% in [2]; 50% in assay [3]; 70% with Setaria faberi (SETFA); 100% in [4]; 40% in the assay on Lolium perenne (LOLPE). The pest or weed control at 500 g/ha in the assay on Eleusine indica (ELEIN) was 70%; in assay [5], 30%; in assay [6], 30%.
Take `O=C([O-])CC[n+]1ccc(-c2nccc(C(F)(F)F)n2)cn1` [Compound A39]: the pest or weed control at 500 g/ha stood at 0% in assay [1]; 100% in [2]; 90% in assay [3]; 40% in the assay on Setaria faberi (SETFA); 70% in [4]; 60% in the assay with Lolium perenne (LOLPE). The pest or weed control at 500 g/ha in the assay with Eleusine indica (ELEIN) came out at 80%; in assay [5] it was 90%; in assay [6], 30%.
`CC(CC(=O)O)[n+]1ccc(-c2ncccn2)cn1` (stereo not drawn) [Compound A40, 3-(4-pyrimidin-2-ylpyridazin-1-ium-1-yl)butanoic acid 2,2,2-trifluoroacetate]: the pest or weed control at 500 g/ha in [1] is 100%; in [2], 90%; in assay [3], 70%; in the assay with Setaria faberi (SETFA) it was 100%; in assay [4], 90%; in the assay with Lolium perenne (LOLPE), 90%. The pest or weed control at 500 g/ha (in the assay with Eleusine indica (ELEIN); in assay [5]; in assay [6]) was 90% in each case.
In the case of `CN(C)c1cnc(-c2cc[n+](CCC(=O)[O-])nc2)nc1` [Compound A42], the pest or weed control at 500 g/ha in assay [1] is 20%; in assay [2] it was 50%; in assay [3], 0%; in the assay with Setaria faberi (SETFA), 50%; in [4] it was 50%; in the assay with Lolium perenne (LOLPE), 0%. The pest or weed control at 500 g/ha in the assay on Eleusine indica (ELEIN) was determined as 20%; in [5] it was 30%; in assay [6], 30%.
`Nc1cnc(-c2cc[n+](CCC(=O)[O-])nc2)nc1` [Compound A44]: the pest or weed control at 500 g/ha in [1] stood at 20%; in [2] it was 40%; in assay [3], 10%; in the assay with Setaria faberi (SETFA) it was 60%; in assay [4], 40%; in the assay on Lolium perenne (LOLPE), 20%. The pest or weed control at 500 g/ha in the assay with Eleusine indica (ELEIN) amounted to 20%; in assay [5], 20%; in [6], 30%.
